Source: patent US20250171433A1, “A1H-BENZO[C][1,2]THIADIAZINE-2,2-DIOXIDES BEARING HETEROCYCLIC LINKERS AS SELECTIVE HISTONE DEACETYLASE 6 INHIBITORS” (Georgetown University, priority 2022, published 2025)
pIC50: −log10 of the molar value. Read-outs that look alike come from different tables or passages of the source.

Legend:
hHDAC6 = target: T1, hHDAC6 (Homo sapiens, UniProt Q9UBN7); test: HDAC enzyme activity inhibition assay, HDAC6; format: biochemical; conditions: duplicate, performed by DRC; read-out: potency at hHDAC6
T1 construct: host or cells: baculovirus / Sf9 cells
T1 sequence (Q9UBN7 1-1215): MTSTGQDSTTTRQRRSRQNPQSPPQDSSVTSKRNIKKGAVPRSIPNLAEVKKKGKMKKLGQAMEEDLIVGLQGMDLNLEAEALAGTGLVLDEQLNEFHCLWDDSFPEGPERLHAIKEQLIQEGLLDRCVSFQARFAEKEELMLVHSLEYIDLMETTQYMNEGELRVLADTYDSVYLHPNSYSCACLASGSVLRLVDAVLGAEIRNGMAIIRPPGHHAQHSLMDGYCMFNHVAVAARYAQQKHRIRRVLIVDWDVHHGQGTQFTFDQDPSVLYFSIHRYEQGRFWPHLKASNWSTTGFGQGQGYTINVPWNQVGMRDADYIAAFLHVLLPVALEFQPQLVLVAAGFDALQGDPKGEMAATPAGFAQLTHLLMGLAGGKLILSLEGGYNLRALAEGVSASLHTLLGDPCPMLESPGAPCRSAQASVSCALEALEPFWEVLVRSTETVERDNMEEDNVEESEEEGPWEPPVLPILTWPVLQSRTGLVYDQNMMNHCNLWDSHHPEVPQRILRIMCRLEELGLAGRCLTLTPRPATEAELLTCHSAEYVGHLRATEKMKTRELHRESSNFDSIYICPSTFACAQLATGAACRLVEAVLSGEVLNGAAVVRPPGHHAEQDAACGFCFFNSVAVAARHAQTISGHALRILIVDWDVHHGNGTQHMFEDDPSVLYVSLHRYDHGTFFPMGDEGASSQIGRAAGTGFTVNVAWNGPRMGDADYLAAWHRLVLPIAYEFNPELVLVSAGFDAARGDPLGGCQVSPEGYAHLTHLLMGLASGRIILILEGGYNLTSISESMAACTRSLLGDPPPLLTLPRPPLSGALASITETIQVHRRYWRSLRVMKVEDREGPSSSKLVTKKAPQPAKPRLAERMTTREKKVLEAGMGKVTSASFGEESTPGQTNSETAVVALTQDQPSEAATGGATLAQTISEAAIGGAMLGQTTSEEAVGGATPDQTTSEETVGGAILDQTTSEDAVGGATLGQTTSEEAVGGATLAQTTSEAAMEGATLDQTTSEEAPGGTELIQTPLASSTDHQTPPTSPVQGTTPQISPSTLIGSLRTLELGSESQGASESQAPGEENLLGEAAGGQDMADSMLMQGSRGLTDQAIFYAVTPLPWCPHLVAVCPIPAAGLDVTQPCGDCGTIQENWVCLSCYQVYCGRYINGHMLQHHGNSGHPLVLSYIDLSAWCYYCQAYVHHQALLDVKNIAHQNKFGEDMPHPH
Procedure: (§1) The effectiveness, or potency, of a present HDAC6I with respect to inhibiting the activity of an HDAC is measured by an IC50 value. The quantitative IC50 value indicates the concentration of a particular compound that is needed to inhibit the activity of an enzyme by 50% in vitro. Stated alternatively, the IC50 value is the half maximal (50%) inhibitory concentration of a compound tested using a specific enzyme, e.g., HDAC, of interest.
(§2) The HDAC1, 2, 4, 5, 6, 7, 8, 9, 10, and 11 assays used isolated recombinant human protein; HDAC3/NcoR2 complex was used for the HDAC3 assay. Substrate for HDAC1, 2, 3, 6, 10, and 11 assays is a fluorogenic peptide from p53 residues 379-382 (RHKKAc); substrate for HDAC8 is fluorogenic diacyl peptide based on residues 379-382 of p53 (RHKAcKAc). Acetyl-Lys(trifluoroacetyl)-AMC substrate was used for HDAC4, 5, 7, and 9 assays. Compounds were dissolved in DMSO and tested in 10-dose IC50 mode with 3-fold serial dilution starting at 30 μM. […]
(§3) All IC50 values are automatically calculated using the GraphPad Prism version 5 and Equation of Sigmoidal dose-response (variable slope): […]
(§4) HDAC Activity Assays: HDAC assay is performed using fluorescently-labeled acetylated substrate, which comprises an acetylated lysine side chain. […] HDACs 1 and 6 were expressed as full length fusion proteins. […]

HDAC1 = target: T2, HDAC1 (Homo sapiens, UniProt Q13547); test: HDAC enzyme activity inhibition assay, HDAC1; format: biochemical; conditions: DRC
T2 construct: host or cells: baculovirus / Sf9 cells
Procedure: as §1, §2, §3, §4

other HDAC subtypes = test: Inhibition of other HDAC subtypes at a single concentration; format: biochemical, human
Procedure: The HDAC1, 2, 4, 5, 6, 7, 8, 9, 10, and 11 assays used isolated recombinant human protein; HDAC3/NcoR2 complex was used for the HDAC3 assay. Substrate for HDAC1, 2, 3, 6, 10, and 11 assays is a fluorogenic peptide from p53 residues 379-382 (RHKKAc); substrate for HDAC8 is fluorogenic diacyl peptide based on residues 379-382 of p53 (RHKAcKAc). Acetyl-Lys(trifluoroacetyl)-AMC substrate was used for HDAC4, 5, 7, and 9 assays. Compounds were dissolved in DMSO and tested in 10-dose IC50 mode with 3-fold serial dilution starting at 30 μM. Control compound trichostatin A (TSA) was tested in a 10-dose IC50 mode with 3-fold serial dilution starting at 5 μM. IC50 values were extracted by curve-fitting the dose/response slopes. Assays were performed in duplicate, and IC50 values are an average of data from both experiments.

Kinetic solubility = format: physicochemical
Permeability and efflux = format: in vitro ADME
[1] = Clearance in human microsomes; format: in vitro ADME
[2] = Clearance in mouse microsomes; format: in vitro ADME
[3] = Free fraction in mouse plasma; format: in vitro ADME
[4] = Free fraction in human plasma; format: in vitro ADME
[5] = Chemical stability at pH 7.4 and 2; format: physicochemical
Mice iv PK = conditions: mouse, in vivo
[6] = Oral PK study with brain and sciatic nerve exposure; format: in vivo, mice
[7] = Reported functional activity
[8] = mouse, plasma, oral PK study, gavage

T2 sequence (Q13547 whole entry): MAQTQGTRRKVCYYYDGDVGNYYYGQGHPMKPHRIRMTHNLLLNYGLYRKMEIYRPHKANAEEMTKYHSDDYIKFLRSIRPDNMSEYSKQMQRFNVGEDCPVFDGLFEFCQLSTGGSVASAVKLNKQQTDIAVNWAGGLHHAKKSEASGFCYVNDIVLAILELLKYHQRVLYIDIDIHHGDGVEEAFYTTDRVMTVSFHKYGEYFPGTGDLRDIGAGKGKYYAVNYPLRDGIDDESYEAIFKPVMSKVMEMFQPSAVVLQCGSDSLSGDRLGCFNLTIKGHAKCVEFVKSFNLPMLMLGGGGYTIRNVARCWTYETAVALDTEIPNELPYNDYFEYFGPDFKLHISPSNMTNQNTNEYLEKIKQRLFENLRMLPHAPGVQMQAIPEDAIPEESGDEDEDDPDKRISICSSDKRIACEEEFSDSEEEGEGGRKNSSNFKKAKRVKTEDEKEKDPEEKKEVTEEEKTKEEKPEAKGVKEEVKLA

pIC50 (hHDAC6): 7.54
selectivity against HDAC1 (HDAC1): full selectivity
kinetic solubility (Kinetic solubility): high
efflux (Permeability and efflux): low
permeability (Permeability and efflux): high
clearance in human microsomes [1]: low
clearance in mouse microsomes [2]: higher
microsomal CLint ([2]; mouse, compared with set criteria in Schedule B, species not given): > 50 µL/min/mg
free fraction in mouse plasma [3]: high
free fraction in human plasma [4]: high
chemical stability at pH 2 ([5]; pH 2): chemically stable
chemical stability at pH 7.4 ([5]; pH 7.4): chemically stable
clearance (Mice iv PK): 44.9 mL/min/kg
Kp at 1 h ([6]; mouse, brain and plasma, oral, @1 h, read-out: Brain/Plasma ratio): 0.8
Kp at 4 h ([6]; mouse, brain and plasma, oral, @4 h, read-out: Brain/Plasma ratio): 1.2
concentrations detected in the brain and the sciatic nerve ([6]; mouse, in vivo): moderate
bioavailability ([6]; mouse, plasma, oral PK study): 14.7%
half-life ([6]; mouse, plasma, oral PK study): 2.2 h
Cmax [6, 8]: 456 ng/mL
Tmax [6, 8]: 0.25 h
MRT ([6]; mouse, plasma, oral PK study, read-out: mean residence time): 3.14 h
Kp at 1 h ([6]; mouse, sciatic nerve and plasma, oral, at 1 h, read-out: Sciatic nerve/plasma ratio): 0.4
clearance ([6]; oral PK study): medium
volume of distribution ([6]; oral PK study): medium
Compound: O=S1(=O)CCc2ccccc2N1Cc1ccc(-c2nnc(C(F)F)o2)cn1 [Compound 1, 1-[[5-[5-(Difluoromethyl)-1,3,4-axadiazol-2-yl)pyridin-2-yl]methyl]-3,4-dihydro-1H-benzo[c][1,2]thiazine-2,2-dioxide]
% inh. at 10 μM versus other HDAC subtypes (other HDAC subtypes): < 20%
reported functional activity [7]: 0.76 µM
